# Data as given in publication PMC2409587 (British Journal of Cancer, 2004).
# Like-named read-outs stand apart in the source and are kept apart here.
# How the values were obtained:
# [1] = Plasma and tissue levels in mice after a single intragastric dose; assay type: in vivo, mouse; conditions: for peak concentration / AUC: mice, 240 mg/kg i.g.; for AUC: 0-120 min
# Protocol: Animal experiments were conducted as stipulated by Project Licence 40/2496 granted by the UK Home Office. Experiments were vetted and approved by the Leicester University Animal Welfare Committee and complied with the UKCCCR guidelines for the welfare of animals in experimental neoplasia. […] The vehicle was glycerol formal, and the dose volume approximately 10 ml kg^−1. In the case of DMU 212, the vehicle also contained 10% DMSO. Mice were killed by terminal gaseous anaesthesia at 10, 30, 60 or 120 min postdosing. Blood was collected by cardiac puncture, and plasma was obtained by centrifugation. The liver, kidney, lung, heart, brain and gut were excised, and scrapings were obtained from small intestine and colon. Tissues were snap-frozen (liquid nitrogen) and stored at −80°C until analysis.
# Tissues were homogenised (1 : 1 volume to tissue mass ratio) in 50 mM Hepes buffer (Sigma, Poole, UK) using a hand-held glass homogeniser. An aliquot (250 μl) of homogenate, to which an internal standard had been added was vortexed, followed by the addition of acetonitrile (1 ml). After vigorous shaking, mixtures were kept on ice (5–10 min) and centrifuged (2800 g, 10 min, 4°C). The supernatants were dried under a stream of nitrogen and reconstituted in mobile phase (100 μl).
# (§1) HPLC analysis was performed using a Varian Prostar HPLC system (Varian, UK) with a Pro-Star 230 solvent delivery system, a Pro-Star 310 UV–Vis detector, a Pro-Star 363 Fluorescence detector, a 410 Varian autosampler and an Ultracarb C18 column (4.6 mm × 250 mm, 5 μm, Phenomenex, UK). The mobile phase consisted of the three components: aqueous ammonium acetate (pH 6.5, 50 mM), propan-2-ol and acetonitrile. […] The flow rate for both methods was 1 ml min^−1.
# (§2) The injection volume of samples reconstituted in the mobile phase was 50 μl.
# The curves were characterised by regression coefficients of R^2=0.99 or above. […] Therefore, metabolites were not quantitated.
# The area under the plasma or tissue concentration vs time curve (AUC) values were calculated using the trapezoidal rule (WinNonlin v.1.1, Scientific Consultants, USA).
# HT-29 colon cancer cells = experiment: Effect of agents on growth of HT-29 cells; assay type: cell-based; conditions: Homo sapiens, read-out: IC50 (cell growth)
# Protocol: (§3) Cells were seeded (10^4 per well) in 24-well plates and cultured in DMEM containing Glutamax I (Life Technologies, Paisley, UK) and glucose (4.5 g l^−1) and 10% foetal calf serum (Gibco, Paisley, UK). […] Cells were counted 72, 96, 120, 144 and 168 h postaddition of agents using a Z2 Coulter Particle Count and Size Analyzer (Beckman Coulter, High Wycombe, UK). Control cultures contained the vehicle only. […] The IC50 values inserted in Figure 5 were calculated from the linear portion of the cell number-vs agent concentration curves at the 168 h time point.
# [2] = Incubation with mouse liver microsomes; assay type: in vitro ADME; conditions: mouse liver microsomes 0.5 mg protein ml^−1, NADPH 1 mM, substrate 1 mM, 20 min, 37°C
# Protocol: Microsomes were prepared by differential centrifugation of mouse liver homogenate first at 9 × 10^3 g (20 min, 4°C), then at 10^5 g (1 h) in a Beckman L-8-60 ultracentrifuge (Beckman Coulter UK Ltd, High Wycombe, Buckinghamshire, UK). The microsomal pellet was suspended in Tris buffer (50 mM, pH 7.4), recentrifuged at 10^5 g (1 h) and resuspended in Tris buffer. Liver microsomes from two to four mice were pooled. […] The addition of one volume of ice-cold methanol terminated the reaction. The mixture was vortexed (30 s), centrifuged (3 min, 13 400 g) and the supernatant was collected and analysed by HPLC.
# as §1, §2
# [3] = test system: HCA-7 and HT-29 colon cancer cells; experiment: Effect of agents on growth of colon cancer cells, range stated over both lines; assay type: cell-based; conditions: Homo sapiens, 168 h, read-out: IC50 values (cell growth), range over both agents and both cell lines
# Protocol: as §3
# [4] = test system: transformed human lung-derived cells; set-up: method as in Lu et al, 2001; conditions: ref Lu et al, 2001; cited from earlier work
# [5] = Metabolite characterisation in plasma and tissues of dosed mice; assay type: in vivo, mouse; conditions: 240 mg/kg i.g., HPLC cochromatography and mass spectrometry
# Protocol: The vehicle was glycerol formal, and the dose volume approximately 10 ml kg^−1. […] Mice were killed by terminal gaseous anaesthesia at 10, 30, 60 or 120 min postdosing. Blood was collected by cardiac puncture, and plasma was obtained by centrifugation. The liver, kidney, lung, heart, brain and gut were excised, and scrapings were obtained from small intestine and colon. Tissues were snap-frozen (liquid nitrogen) and stored at −80°C until analysis.
# Tissues were homogenised (1 : 1 volume to tissue mass ratio) in 50 mM Hepes buffer (Sigma, Poole, UK) using a hand-held glass homogeniser. […] After vigorous shaking, mixtures were kept on ice (5–10 min) and centrifuged (2800 g, 10 min, 4°C). The supernatants were dried under a stream of nitrogen and reconstituted in mobile phase (100 μl).
# HPLC analysis was performed using a Varian Prostar HPLC system (Varian, UK) with a Pro-Star 230 solvent delivery system, a Pro-Star 310 UV–Vis detector, a Pro-Star 363 Fluorescence detector, a 410 Varian autosampler and an Ultracarb C18 column (4.6 mm × 250 mm, 5 μm, Phenomenex, UK). […]
# Mass spectrometry was performed using a Quattro Bio-Q tandem quadrupole mass spectrometer upgraded to Quattro MK II specifications (Micromass, Manchester, UK) with a pneumatically assisted electrospray interface. Samples were analysed in positive ion mode.
# HCA-7 colon cancer cells = experiment: Effect of agents on growth of HCA-7 cells; assay type: cell-based; conditions: Homo sapiens, 168 h time point, cell counts
# Protocol: as §3
# [6] = rats, ref Verschoyle et al, unpublished, cited from earlier work
# [7] = assay type: in vivo, mouse; conditions: agents at 0.2% in the diet for 2 weeks; result not shown
# Protocol: ). Both agents were rapidly cleared from blood and tissues within an hour of administration (Figure 3). […] DMU 212 levels reached a peak after 10 min, except in the case of the colon, in which the peak occurred after 30 min. The peak levels for DMU 212 were 5 μM in the plasma and 8, 11, 11, 5, 10, 7600 and 330 nmols g^−1 tissue in the liver, kidney, lung, brain, heart, small intestinal and colonic mucosae, respectively. We performed a preliminary experiment in order to explore whether the difference in gastrointestinal levels would also be observed when the agents are administered with the diet, the route often used in preclinical cancer chemoprevention studies. Agents were admixed with the diet at 0.2% and fed for 2 weeks.
# [8] = plasma and tissues (for DMU 212 except colon), 10 min was the first time point
Compound,peak concentration ([1]; brain) [nmols g^−1 tissue],AUC ([1]; brain),peak concentration ([1]; colonic mucosa) [nmols g^−1 tissue],AUC ([1]; colonic mucosa),peak concentration ([1]; heart) [nmols g^−1 tissue],AUC ([1]; heart),AUC ([1]; intestinal mucosa),peak concentration ([1]; kidney) [nmols g^−1 tissue],AUC ([1]; kidney),peak concentration ([1]; liver) [nmols g^−1 tissue],AUC ([1]; liver),peak concentration ([1]; lung) [nmols g^−1 tissue],AUC ([1]; lung),"time at which levels peaked [1, 8] [min]",peak concentration ([1]; plasma) [µM],AUC ([1]; plasma),peak concentration ([1]; small intestinal mucosa) [nmols g^−1 tissue],microsomal biotransformation (HPLC peaks besides parent) [2],other results
"Oc1ccc(/C=C/c2cc(O)cc(O)c2)cc1 [resveratrol, trans-3,5,4′-trihydroxystilbene, reference compound]",1.2,103 nmoles ml^−1 or g^−1 min,30,2869 nmoles ml^−1 or g^−1 min,75,2072 nmoles ml^−1 or g^−1 min,36 690 nmoles ml^−1 or g^−1 min,16,785 nmoles ml^−1 or g^−1 min,51,2150 nmoles ml^−1 or g^−1 min,50,1123 nmoles ml^−1 or g^−1 min,10,32,863 nmoles ml^−1 or g^−1 min,960,did not yield any peak in addition to that of the parent substrate,"IC50 (HT-29 colon cancer cells; HT-29 cells, 168 h time point, cell counts): 19.9 ± 0.3 µM; IC50 ([3]; HCA-7 and HT-29 cells): 6 to 26 µM"
"COc1ccc(C=Cc2cc(OC)c(OC)c(OC)c2)cc1 [DMU 212, 3,4,5,4′-tetramethoxystilbene]",5,193 nmoles ml^−1 or g^−1 min,330,19 256 nmoles ml^−1 or g^−1 min,10,750 nmoles ml^−1 or g^−1 min,369 315 nmoles ml^−1 or g^−1 min,11,566 nmoles ml^−1 or g^−1 min,8,432 nmoles ml^−1 or g^−1 min,11,778 nmoles ml^−1 or g^−1 min,10,5,246 nmoles ml^−1 or g^−1 min,7600,afforded peaks in addition to that of parent DMU 212,"concentration required to cause significant arrest of transformed lung cell growth in vitro [4]: 10 µM; metabolism in mice in vivo [5]: underwent metabolic hydroxylation or single and double O-demethylation; time at which levels peaked ([1]; colon): 30 min; factor by which peak level exceeded the concentration arresting transformed lung cell growth (10 μM) ([1]; small intestinal mucosa): 760; IC50 (HT-29 colon cancer cells; HT-29, 168 h): 11.3 ± 1.1 µM; IC50 (HCA-7 colon cancer cells): 6 ± 0.2 µM; IC50 [3]: 6 to 26 µM; toxicity ([6]; single doses of up to 40 mg kg^−1 i.v.): devoid of any toxicity; toxicity ([6]; single doses of up to 400 mg kg^−1 p.o.): devoid of any toxicity; colonic levels of DMU 212 relative to those of resveratrol [7]: two-fold"
